Assay: molar heat capacity at constant pressure
Conditions: 101.33 kPa, Crystal, Small sample (50 mg) DSC

NC(=O)c1ccccc1O [2-hydroxybenzamide]
Conditions | molar heat capacity at constant pressure [J/K/mol]
280.4 K | 124.1
285.4 K | 126.3
290.4 K | 128.7
295.4 K | 130.9
300.4 K | 133.1
305.4 K | 135.6
310.4 K | 138
315.4 K | 140.5
320.4 K | 142.9
325.4 K | 145.5
330.4 K | 148.1
335.4 K | 150.5
340.4 K | 153.1
345.4 K | 155.6
350.4 K | 158.2
355.4 K | 160.6
360.4 K | 163.3
365.4 K | 165.6
370.4 K | 168.1
375.4 K | 170.3
380.4 K | 172.9
385.4 K | 175.4
390.4 K | 177.9
395.4 K | 180.6

O=C(O)c1ccccc1O [2-hydroxybenzoic acid]
Conditions | molar heat capacity at constant pressure [J/K/mol]
280.4 K | 128.5
285.5 K | 130
290.5 K | 131.6
295.4 K | 133.5
300.4 K | 135.4
305.4 K | 137.4
310.4 K | 139.4
315.4 K | 141.4
320.4 K | 143.5
325.4 K | 145.5
330.4 K | 147.6
335.4 K | 149.8
340.4 K | 151.8
345.4 K | 154.1
350.4 K | 156.2
355.4 K | 158.2
360.4 K | 160.3
365.4 K | 162.3
370.4 K | 164.2
375.4 K | 165.9
380.4 K | 168
385.4 K | 170.1
390.4 K | 172.1
395.5 K | 173.8
400.5 K | 175.6
405.5 K | 177.5

O=C(O)c1cccc(O)c1 [3-hydroxybenzoic acid]
Conditions | molar heat capacity at constant pressure [J/K/mol]
280.4 K | 134.6
285.5 K | 136.8
290.5 K | 138.9
295.4 K | 141.2
300.4 K | 143.5
305.4 K | 145.8
310.4 K | 147.9
315.4 K | 150.2
320.4 K | 152.7
325.5 K | 155
330.5 K | 157.4
335.5 K | 159.7
340.5 K | 162.2
345.5 K | 164.5
350.4 K | 166.9
355.4 K | 169.1
360.4 K | 171.3
365.4 K | 173.7
370.4 K | 175.9
375.4 K | 177.9
380.4 K | 180.8
385.4 K | 183.8
390.5 K | 186.3
395.5 K | 188.7
400.5 K | 190.6
405.5 K | 192.6
410.5 K | 194.6
415.5 K | 196.6
420.5 K | 198.3
425.5 K | 200.3
430.5 K | 202.5
435.5 K | 205
440.5 K | 207.5
445.5 K | 209.9
450.5 K | 212.1
455.5 K | 214.8
460.4 K | 218.8

O=C(O)c1ccc(O)cc1 [4-hydroxybenzoic acid]
Conditions | molar heat capacity at constant pressure [J/K/mol]
280.8 K | 138.9
285.8 K | 141.3
290.8 K | 143.5
295.8 K | 145.7
300.7 K | 148
305.8 K | 149.7
310.8 K | 151.8
315.8 K | 154.6
320.8 K | 156.4
325.8 K | 158.7
330.8 K | 161.4
335.8 K | 163.8
340.8 K | 166.3
345.8 K | 168.6
350.8 K | 171.1
355.8 K | 173.4
360.8 K | 175.5
365.7 K | 177.8
370.7 K | 180
375.7 K | 182
380.8 K | 184.4
385.8 K | 186.7
390.8 K | 188.9
395.8 K | 191
400.8 K | 193.1
405.8 K | 195.1
410.8 K | 197
415.8 K | 198.7
420.8 K | 200.4
425.8 K | 202.2
430.8 K | 204.5
435.8 K | 207.1
440.8 K | 209.5
445.8 K | 211.6
450.8 K | 213.8
455.8 K | 215.9
460.7 K | 218.2
